Laboratory results taken from US20050090551A1, “Therapeutic use of methionine for the treatment or prevention of mucositis” (Board of Trustees of Southern Illinois University, priority 2003, published 2005).
Where a name gives a salt, the structure may show the parent alone.

Assays:
hamsters = details: Church et al; cited from earlier work
CDDP nephrotoxicity = details: literature reports; cited from earlier work
patients = details: cited from earlier work
CDDP-induced weight loss = details: literature reports; cited from earlier work
CDDP anti-tumor action = details: literature reports; cited from earlier work
CDDP ototoxicity = details: animals; literature reports; cited from earlier work
male Wistar rats [1] = assay: Auditory Brainstem Testing (ABR) thresholds in CDDP-treated rats; format: in vivo, rat
[2] = tested on: Human salivary gland epithelial cells; details: various concentrations of D-methionine (1.0-0.1 mg/ml) six hours prior to 10 Gy; after 24 Hrs
Excerpt: One set was untreated as a control and another was irradiated with 10 Gy the following morning.

[3] = tested on: Walker 256 carcinosarcoma in the rat; details: Jones and Basinger; cited from earlier work
male Wistar rats [4] = tested on: male Wistar rats
male Wistar rats [5] = details: 75, 150 or 300 mg/kg D-methionine prior to 16 mg/kg CDDP
tumor bearing animals = details: pre or post treatment, 150 mg/Kg x5, i.p.
mice = details: 6 Gy/day for five days
Description: The experiment was conducted using a mouse model of radiation-induced lip erythema. Four groups of mice (n=5) were used. The first group (Group A) was an untreated, control group. The second group (Group B) was irradiated with ionizing radiation (6 Gy/day) for 5 days.

male Wistar rats [6] = tested on: male Wistar rats; remark: listed apart in the source
[7] = tested on: NHIK 3025 in vitro human uterine cervix carcinoma in situ cancer cells; details: preadministration of methionine, presumably a racemic mixture; cited from earlier work

Structure (SMILES): NCCCNCCSP(=O)(O)O [WR2721]
- protection from ototoxicity or mortality (hamsters): no WR2721 protection from ototoxicity or mortality
- CDDP nephroprotection (CDDP nephrotoxicity): excellent CDDP nephroprotection
- patients with mild to severe hearing loss (patients; WR2721 prior to CDDP, Glover et al.): 20 of 36
- incidence of significant hearing threshold shift (patients; patients pretreated with WR2721 prior to CDDP, Rubin et al.): 45%

Structure (SMILES): CC(S)C(=O)NCC(=O)O (stereo not drawn) [N-(2-mercapto-propionyl)glycine]
- CDDP nephroprotection (CDDP nephrotoxicity): exacerbate CDDP nephrotoxicity

Structure (SMILES): Nc1ccc(S(=O)(=O)Nc2nccs2)cc1 [Sulfathiazole]
- CDDP nephroprotection (CDDP nephrotoxicity): provides protection against CDDP nephrotoxicity
- protection against CDDP-induced weight loss (CDDP-induced weight loss): not weight loss

Structure (SMILES): CSCC[C@H](N)C(N)=O [L-methioninamide]
- effect on CDDP anti-tumor action (CDDP anti-tumor action): impairs CDDP anti-tumor action
- CDDP nephroprotection (CDDP nephrotoxicity): excellent CDDP nephroprotection

Structure (SMILES): CCOC(=O)[C@@H](N)CS [Ethyl-L-cysteinate]
- CDDP nephroprotection (CDDP nephrotoxicity): exacerbate CDDP nephrotoxicity

Structure (SMILES): O=S([O-])([O-])=S.[Na+].[Na+] [STS, sodium thiosulfate]
- effect on CDDP anti-tumor action (CDDP anti-tumor action): reduces the latter's tumoricidal action
- CDDP otoprotection (CDDP ototoxicity): good CDDP otoprotection
- CDDP nephroprotection (CDDP nephrotoxicity): reduces CDDP nephrotoxicity and ototoxicity

Structure (SMILES): CSCC[C@@H](N)C(=O)O [D-methionine]
- effect on CDDP anti-tumor action (CDDP anti-tumor action): without decreasing anti-tumor action
- animals with complete otoprotection (no significant ABR threshold shift for any stimulus) (male Wistar rats [1]; 75 mg/kg D-methionine i.p. 30 minutes prior to 16 mg/kg CDDP, 3 days later): 2/5
- animals with complete otoprotection (no significant ABR threshold shift for any stimulus) (male Wistar rats [1]; 150 mg/kg D-methionine i.p. 30 minutes prior to 16 mg/kg CDDP, 3 days later): 3/5
- animals with complete otoprotection for all stimulus conditions (male Wistar rats [1]; 300 mg/kg D-methionine i.p. 30 minutes prior to 16 mg/kg CDDP, group of 5, 3 days later): 5
- post-test ABR thresholds vs treated control group, all stimuli (male Wistar rats [1]; any level of D-methionine (75, 150, 300 mg/kg) prior to 16 mg/kg CDDP): significantly lower ABR thresholds than the treated control group
- apoptosis (cells having an apoptotic phenotype) [2]: about 20%
- effect on CDDP anti-tumor action [3]: does not inhibit CDDP anti-tumor action
- alopecia: coat and hair loss vs control group animals (male Wistar rats [4]; D-methionine prior to 16 mg/kg CDDP): significantly less hair loss
- animals surviving to the end of the study period (male Wistar rats [4]; any level of D-methionine prior to 16 mg/kg CDDP): 15/15
- neuroprotection: activity and coordination vs surviving treated controls (male Wistar rats [4]; morning of the third day, D-methionine prior to 16 mg/kg CDDP): noticeably more lively, active, and coordinated
- outer hair cell findings, middle and basal turns (male Wistar rats [5]): only the treated control group showed significantly different findings from the untreated control group
- interference with antitumor activity of ionizing radiation (tumor bearing animals): did not interfere with antitumor activity of ionizing radiation
- CDDP nephroprotection (CDDP nephrotoxicity): highly effective CDDP nephroprotection
- lip erythema, post-treatment (mice; 150 mg/kg one hour after irradiation): prevented the occurrence of lip erythema
- lip erythema, pre-treatment (mice; 150 mg/kg six hours prior to irradiation): prevented the occurrence of lip erythema
- weight loss vs treated control group (male Wistar rats [6]; 300 mg/kg D-methionine prior to 16 mg/kg CDDP, 3 days): significantly less than that in the treated control group
- CDDP-induced weight loss, dose dependence (male Wistar rats [6]; 75, 150, 300 mg/kg D-methionine prior to 16 mg/kg CDDP): diminished as D-methionine dosing increased

Structure (SMILES): CSCC[C@H](N)C(=O)O (racemic) [methionine]
- effect on CDDP cytotoxicity [7]: sensitized

Structure (SMILES): CSc1ncccc1C(=O)O [2-(methylthio)nicotinic acid]
- CDDP nephroprotection (CDDP nephrotoxicity): does not provide nephroprotection

Structure (SMILES): CO[C@@]1(NC(=O)Cc2cccs2)C(=O)N2C(C(=O)O)=C(COC(N)=O)CS[C@@H]21 [cefoxitin]
- CDDP nephroprotection (CDDP nephrotoxicity): does not provide nephroprotection
- protection against CDDP-induced weight loss (CDDP-induced weight loss): some protection against CDDP-induced weight loss

Structure (SMILES): O=C(O)CCCC[C@@H]1SC[C@@H]2NC(=O)N[C@@H]21 [Biotin]
- effect on CDDP anti-tumor action (CDDP anti-tumor action): inhibits anti-tumor activity
- CDDP nephroprotection (CDDP nephrotoxicity): good CDDP nephroprotection

Structure (SMILES): CC1=C(C(=O)O)N2C(=O)[C@@H](NC(=O)[C@H](N)c3ccccc3)[C@H]2SC1 [Cephalexin]
- protection against CDDP-induced weight loss (CDDP-induced weight loss): protects against CDDP-induced kidney dysfunction and weight loss

Structure (SMILES): C[C@H](CS)C(=O)N1CCC[C@H]1C(=O)O [Captropril]
- CDDP nephroprotection (CDDP nephrotoxicity): protects against CDDP nephrotoxicity

Structure (SMILES): CC1(C)S[C@@H]2[C@H](NC(=O)Cc3ccccc3)C(=O)N2[C@H]1C(=O)[O-].[Na+] [sodium salt of penicillin G, penicillin G]
- CDDP nephroprotection (CDDP nephrotoxicity): does not protect against CDDP nephrotoxicity or weight loss
- protection against CDDP-induced weight loss (CDDP-induced weight loss): does not protect against CDDP nephrotoxicity or weight loss

Structure (SMILES): Cc1ncc(C[n+]2csc(CCO)c2C)c(N)n1 [thiamine-HCl]
- CDDP nephroprotection (CDDP nephrotoxicity): does not protect against cisplatin nephrotoxicity or weight loss
- protection against CDDP-induced weight loss (CDDP-induced weight loss): does not protect against cisplatin nephrotoxicity or weight loss
